System: BJAB cells
Test: Fc:FasL-induced apoptosis with CD74-derived peptides
Format: cell-based
Conditions: after 24 hours, compared to buffer- and unrelated peptide-treated cells
From the text: A membrane proximal region of CD74-derived peptides disrupts CD74-Fas complexes. […] The CH-11 binding site was mapped to the membrane-proximal CRD3-domain of Fas.^10 We thus predicted that the membrane-proximal region of CD74 may be involved in the interaction with Fas. We designed four 20 amino acids long peptides with five amino acid overlaps spanning this region of CD74 (FIG. 16A).
The goal of this example was to design and identify peptides that compete with the Fas-CD74 complex in order to enhance Fas-mediated apoptosis. […] In order to better define competing peptides and peptides with apoptosis activity, we tested shorter peptides. We incubated seven amino acid length peptides (7mer 1, 7mer 2, and 7mer3) with BJAB cells and then stimulated apoptosis using recombinant Fas ligand (Fc:FasL).

Row | Substance | Fas ligand-induced apoptosis (7mer peptides)
1 | DKLTVTS [7mer 3] | significantly enhanced levels of Fas ligand-induced apoptosis
2 | GRLDKLT [7mer 2] | significantly enhanced levels of Fas ligand-induced apoptosis
3 | QQQGRLD [7mer 1] | significantly enhanced levels of Fas ligand-induced apoptosis

Reference: US20100266577A1, “Method of Cancer Treatment with Antagonists of FAS Inhibitors” (priority 2007, published 2010)
